A short description of this assay: The antagonist activity measured as inhibition of LTB4 response in aggregation of neutrophils.

Regarding `CCCCCCCCCCOc1ccc2c(=O)c3cc(C(=O)O)ccc3oc2c1CCC(=O)O` [5-(2-Carboxy-ethyl)-6-decyloxy-9-oxo-9H-xanthene-2-carboxylic acid], the IC50 (commonly the concentration that inhibits the measured activity by half) was 513 nM. This counts as sub-micromolar.
As for `COc1ccc(/C=C/CCCCOc2ccc3c(=O)c4cc(C(=O)O)ccc4oc3c2CCC(=O)O)cc1` [LY-210073], the figure is 133 nM.

These data come from BindingDB's records for doi:10.1021/jm00064a006 (Eli Lilly, 1993).
